The values below come from the METLIN SMRT retention time set (Domingo-Almenara et al. 2019).

Each structure is given as a SMILES string.

This series can be described thus: gradient 5% acetonitrile 3 min, to 50% in 2 min, to 85% in 15 min, held 3 min, 100 µL/min. Conditions: column: Zorbax Extend-C18 2.1 x 50 mm; eluents: water / acetonitrile, 0.1% formic acid. The gist of the method:
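Retention times of pure standards were taken from adduct peaks that were selected by computer and manually inspected. Over 3 months, mixtures of ~100 molecules were run by HPLC–quadrupole time-of-flight mass spectrometry in positive and negative ionization mode. The Zorbax Extend-C18 column (2.1 × 50 mm, 1.8 μm) ran at 100 μL/min in water and acetonitrile, each containing 0.1% formic acid, with 40 μL dead volume and 900 μL dwell volume.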
In turn, `O=C1CCN(C(=O)[C@@H]2CCCN2C(=O)C2CCCCC2)CCCCCCN1` gave an RP-LC retention time of 743 s.

`Cc1nc(N2CCN(C(=O)c3ccccc3)CC2)c(C#N)c2c1COC(C)(C)C2` displayed an RP-LC retention time of 941 s.

For the compound `Cc1nnc(-c2cn(CC(=O)Nc3ccc(F)cc3F)c3ccccc23)o1`, the RP-LC retention time amounted to 747 s.

Regarding `COC(=O)N1CCC(c2ccc(OC)cc2)C1` (stereo not given), the RP-LC retention time came to 758 s.

For `CSc1ccc(N2C=NS(=O)(=O)c3cccnc32)cc1`, the RP-LC retention time was determined as 810 s.

`Cc1nc(N2CCCC(C(=O)NC(C)C)C2)c2c(C)c(C)oc2n1` (stereo not given) had an RP-LC retention time of 712 s.

`COc1ccc(OC)c(NC(=O)CN2C(=O)CCc3cc(Br)ccc32)c1`: the RP-LC retention time came to 962 s.

`CC1=NS(=O)(=O)c2cccnc2N1c1ccc(Br)cc1` displayed an RP-LC retention time of 836 s.

Take `CN(C)CCCNc1oc(-c2ccc(F)cc2)nc1S(=O)(=O)c1ccccc1`: the RP-LC retention time came to 678 s.

`CC(C)n1c(=O)oc2cc(-c3noc(-c4cccc5[nH]ccc45)n3)ccc21` showed an RP-LC retention time of 1080 s.

With `CCC(C)[C@H](NC(=O)N1C[C@H]2C[C@@H](C1)c1cccc(=O)n1C2)C(=O)OC` (stereo not given in full), the RP-LC retention time amounted to 624 s.

`COC(=O)c1c(NCc2ccc(OC)c(OC)c2)c2cccc(Cl)c2[nH]c1=O`: the RP-LC retention time is 736 s.

Compound `CCCS(=O)(=O)c1nc2ccc(NS(=O)(=O)c3ccc(Cl)cc3)cc2s1` gave an RP-LC retention time of 984 s.

On to `CC(=O)Nc1cccc(N2CC(C(=O)Nc3ccc(Cl)c(C(F)(F)F)c3)CC2=O)c1` (stereo not given), for which the RP-LC retention time turned out to be 807 s.

In the case of `Cc1nn(C(C)C(=O)Nc2cc(F)ccc2F)c(=O)c2c(-n3cccc3)n(-c3ccccc3)nc12` (stereo not given), the RP-LC retention time stood at 1130 s.

As for `COc1ccc(C2(C)OC(c3cc(C)nc4ccccc34)=NN2C(C)=O)c(OC)c1` (stereo not given), the RP-LC retention time stood at 818 s.

`Cc1nn2c(CNS(=O)(=O)c3ccc(F)c(C)c3)c(-c3ccccc3)nc2s1` gave an RP-LC retention time of 898 s.

The compound `Cc1ncnc2c1CCC(=O)N2CC1CCCCC1` registered an RP-LC retention time of 848 s.

In turn, `Cc1cc(C)cc(NC(=O)C2CCN(c3c(C(=O)N4CCC(C)CC4)cnc4snc(C)c34)CC2)c1` came in with an RP-LC retention time of 1100 s.

As for `Fc1ccc(CN2CCN(c3cnn4c(C5CC5)nnc4c3)CC2)cc1`, the RP-LC retention time was 498 s.

For `CCn1ncc(Br)c1C(=O)Nc1ccccc1Cl`, the RP-LC retention time was found to be 1090 s.

Consider `CC(C)c1noc(-c2cc(=O)n(CC(=O)Nc3ccccc3Cl)c3ccccc23)n1`, for which the RP-LC retention time came to 1050 s.

Consider `COC(=O)c1c(C)[nH]c(C(=O)N2CCCC(C(=O)NCc3ccc(Cl)cc3)C2)c1C` (stereo not given), for which the RP-LC retention time is 809 s.

For the compound `COCCn1cc(CCNC(=O)Nc2cccc(Cl)c2)c2cccnc21`, the RP-LC retention time came to 762 s.

`O=c1c(S(=O)(=O)N2CCCC2)cccn1Cc1ccc(Cl)cc1` yielded an RP-LC retention time of 876 s.

The compound `CCc1c(C)nc2nc(-c3ccccc3)nn2c1Nc1cccc(OC)c1` showed an RP-LC retention time of 989 s.

Turning to `CCOC(=O)N1CCN(C(=O)CSc2ccc(-c3ccc(OC)cc3)nn2)CC1`, the RP-LC retention time came to 716 s.

The compound `COC(=O)c1ccsc1NC(=O)c1ccc2c(c1)OCCO2` registered an RP-LC retention time of 979 s.

`CCOc1ccc(C(=O)N(c2ccccc2CC)C2C=CS(=O)(=O)C2)cc1OCC` (stereo not given): the RP-LC retention time stood at 840 s.

For the compound `COc1cn(CC(=O)Nc2ccc(OC(F)(F)F)cc2)c(CO)cc1=O`, the RP-LC retention time amounted to 618 s.

For the compound `Cc1nn(-c2ccccc2)c2c1N(CC(=O)NC(C)c1ccccc1)C(=O)CS2` (stereo not given), the RP-LC retention time stood at 845 s.

The compound `CCN(CC)C(=O)[C@]1(c2ccccc2)C[C@@H]1CN` registered an RP-LC retention time of 655 s.

`CCc1ccc(C2=C(C)C(N3CCC(C(=O)NCc4ccc(C)o4)CC3)=NS2(=O)=O)cc1`: the RP-LC retention time came to 944 s.

Take `C#CCCOC(=O)Nc1ccccc1`: the RP-LC retention time worked out at 878 s.

In the case of `O=C(C1CCN(S(=O)(=O)c2cc(-c3noc(C4CCC4)n3)cs2)CC1)N1CCCC1`, the RP-LC retention time amounted to 911 s.

For `O=C(c1nc(C2CC2)nc2c1OCCO2)N1CCCC1c1cccnc1` (stereo not given), the RP-LC retention time turned out to be 642 s.

For the compound `Cc1ccc(CNC(=O)c2ncn3c2C(=O)N(C2CC2)C(C)(C(=O)NCc2cccc(C)c2)C3)cc1` (stereo not given), the RP-LC retention time amounted to 827 s.

As for `NC(=O)N1CCC(CC(=O)N2CCC([C@H]3c4ncc(Br)cc4CCc4cc(Cl)cc(Br)c43)CC2)CC1`, the RP-LC retention time was found to be 1040 s.

`CCOc1ccc(NC(=O)NCCc2cn(C)c3ncccc23)cc1`: the RP-LC retention time came out at 676 s.

`Cc1cc(N2CCN(C(=O)Cc3ccccc3Br)CC2)nc2nncn12` had an RP-LC retention time of 622 s.

`COc1ccccc1CNC(=O)C(=O)NCc1ccsc1` returned an RP-LC retention time of 796 s.

For the compound `Cn1nnc2cc(C(=O)NCc3ccc4c(c3)OCO4)ccc21`, the RP-LC retention time is 686 s.

`CCc1cccc(NC(=O)Cn2c(=O)nc(N3CCC(C)CC3)c3ccccc32)c1` came in with an RP-LC retention time of 898 s.

`CCSc1nnc(-c2nn(C)c3c2CN(C(=O)c2ccc(F)c(F)c2)CC3)n1C` came in with an RP-LC retention time of 763 s.

Consider `O=C(Nc1ccc(F)c(Cl)c1)N1CCc2nc[nH]c2C1`, for which the RP-LC retention time is 614 s.

In turn, `CN(CC(=O)N1CCN(c2ccccc2F)CC1)S(=O)(=O)c1c[nH]c(C(=O)N2CCCC2)c1` had an RP-LC retention time of 752 s.

The compound `Cc1cc2nc(C(=O)NC(C)C)c(=O)n(C)c2cc1C` showed an RP-LC retention time of 747 s.

`Cc1occc1C(=O)Nc1nc(-c2ccc(C(C)(C)C)cc2)cs1` had an RP-LC retention time of 1300 s.

As for `CS(=O)(=O)Nc1ccc(C2(C(=O)NCc3ccc4c(c3)OCO4)CCCCC2)cc1`, the RP-LC retention time is 857 s.

Consider `Cc1cc(C)cc(NC(=O)Cn2ncc3c(c2=O)N(CC2CC2)C(=O)CS3)c1`, for which the RP-LC retention time amounted to 883 s.

`CCOC(=O)c1cc([N+](=O)[O-])sc1NC(=O)CCCS(=O)(=O)c1ccc(F)cc1` showed an RP-LC retention time of 965 s.

Regarding `CCOc1ccc(-c2noc(Cn3c(=O)n(CC(C)C)c(=O)c4ccccc43)n2)cc1`, the RP-LC retention time worked out at 1210 s.

The compound `COCCN1CCn2cc(S(=O)(=O)Nc3cc(C)ccc3C)cc2C1=O` returned an RP-LC retention time of 730 s.

For the compound `O=C(c1cccc(Cl)c1)N1CCN(c2cnn3c(C4CC4)nnc3c2)CC1`, the RP-LC retention time was found to be 593 s.

The compound `Cc1nc(-c2ccc(-c3noc(CN4C(=O)COc5ccc(Cl)cc54)n3)cc2)cs1` showed an RP-LC retention time of 1150 s.

`CN1CCCN(C(=O)c2ccc(-c3ccsc3)nc2)CC1` had an RP-LC retention time of 586 s.

In the case of `CC1CCCN(C(=O)c2cc3c(s2)CCN(C(=O)c2ccc(Cl)cc2)C3)C1` (stereo not given), the RP-LC retention time is 991 s.

`CC1CCCN(CC2CCN(C(=O)Nc3ccc(F)cc3)CC2)C1` (stereo not given) gave an RP-LC retention time of 608 s.

Compound `Cc1cc(NC(=O)C(C)(C)C)nn1Cc1ccccc1` registered an RP-LC retention time of 879 s.

For the compound `Cc1ccc(F)cc1S(=O)(=O)N[C@@H]1CN(c2ncccn2)C[C@H]1CN(C)C`, the RP-LC retention time is 618 s.
